Reference: patent publication EP4603105A1, “PHARMACEUTICAL COMPOSITION CONTAINING CYCLIC COMPOUND HAVING SELECTIVE KRAS INHIBITORY EFFECT AGAINST HRAS AND NRAS” (CHUGAI SEIYAKU KABUSHIKI KAISHA, priority 2022, dated 2024)

Assays:
[1] = target: GDP-bound NRAS wild-type protein (Homo sapiens, UniProt P01111); assay: Binding to NRAS by surface plasmon resonance (SPR), KD and KD ratio to KRAS; conditions: ratio of KD value for GDP-bound NRAS wild-type protein to KD value for KRAS (SPR)
How it was run: (§1)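 Each cycle, GDP-bound biotin-Avi RAS was captured (~100–300 RU), compound concentrations were injected low to high for 75 s each at 100 µL/min, then the chip was regenerated. Buffer: HBS pH 7.4, 10 mM MgCl2, 10 µM GDP, 1 mM DTT, 4% DMSO; 30°C. KD from a 1:1 binding model.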

HRAS wild-type protein = HRAS wild-type protein (Homo sapiens, UniProt P01112); assay: Binding to HRAS by surface plasmon resonance (SPR), KD and KD ratio to KRAS; conditions: ratio of KD value for HRAS wild-type protein to KD value for KRAS (SPR)
How it was run: as §1

[2] = test system: human lung cancer strain NCI-H441; type: cell-based
How it was run: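 Signal came from […] measured per well once the reagent was added. Beforehand, cells were cultured at 37°C and 5% carbon dioxide on a compound series serially diluted in dimethyl sulfoxide.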

Chain of HRAS wild-type protein (P01112 whole entry): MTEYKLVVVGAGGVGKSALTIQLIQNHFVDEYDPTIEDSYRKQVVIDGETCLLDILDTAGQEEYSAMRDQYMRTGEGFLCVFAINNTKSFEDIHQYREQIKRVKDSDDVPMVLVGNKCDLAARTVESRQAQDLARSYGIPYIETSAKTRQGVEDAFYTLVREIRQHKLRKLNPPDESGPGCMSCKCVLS
Chain of GDP-bound NRAS wild-type protein (P01111 whole entry): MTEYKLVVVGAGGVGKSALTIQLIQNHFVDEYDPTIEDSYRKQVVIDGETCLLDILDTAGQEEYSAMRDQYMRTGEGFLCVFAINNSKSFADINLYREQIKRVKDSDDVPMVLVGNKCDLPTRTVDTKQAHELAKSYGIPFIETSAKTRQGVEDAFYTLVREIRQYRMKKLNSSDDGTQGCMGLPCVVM

Row | SMILES | NRAS /KRAS [1] | HRAS /KRAS (HRAS wild-type protein) | IC50 [2] [nM]
1 | CCCN(C)C(=O)[C@@H]1CC(=O)N(C)[C@@H](C)C(=O)N[C@@H]([C@@H](C)CC)C(=O)N(C)CC(=O)N(C)[C@H]2C/C=C\CCN(C2=O)[C@@H](Cc2ccc(C(F)(F)F)cc2)C(=O)N(C)CC(=O)N[C@@H](CCc2cc(F)c(C(F)(F)F)c(F)c2)C(=O)N2C[C@H](OCC)C[C@H]2C(=O)NC2(CC(F)(F)C2)C(=O)N(C)[C@@H](C2CCCC2)C(=O)N1C [PP1731] | A (a compound having 10 or more and less than 20 is denoted as A) | A (a compound having 10 or more and less than 20 is denoted as A) | 7.4
2 | CCCN(C)C(=O)[C@@H]1CC(=O)N(C)[C@@H](CC)C(=O)N[C@@H]([C@@H](C)CC)C(=O)N(C)CC(=O)N(C)[C@H]2C/C=C\CCN(C2=O)[C@@H](Cc2ccc(C(F)(F)F)cc2)C(=O)N(C)CC(=O)N[C@@H](CCc2cc(F)c(C(F)(F)F)c(F)c2)C(=O)N2C[C@H](OCC)C[C@H]2C(=O)NC2(CC(F)(F)C2)C(=O)N(C)[C@@H](C2CCCC2)C(=O)N1C [PP1732] | AA (a compound having 20 or more is denoted as AA) | A (a compound having 10 or more and less than 20 is denoted as A) | 6.4
3 | CCCN(C)C(=O)[C@@H]1CC(=O)N(C)[C@@H](CC(F)F)C(=O)N[C@@H]([C@@H](C)CC)C(=O)N(C)CC(=O)N(C)[C@H]2C/C=C\CCN(C2=O)[C@@H](Cc2ccc(C(F)(F)F)cc2)C(=O)N(C)CC(=O)N[C@@H](CCc2cc(F)c(C(F)(F)F)c(F)c2)C(=O)N2C[C@H](OCC)C[C@H]2C(=O)NC2(CC(F)(F)C2)C(=O)N(C)[C@@H](C2CCCC2)C(=O)N1C [PP1733] | A (a compound having 10 or more and less than 20 is denoted as A) | A (a compound having 10 or more and less than 20 is denoted as A) | 3.8
4 | CCCN(C)C(=O)[C@@H]1CC(=O)N(C)[C@@H](CC(F)(F)F)C(=O)N[C@@H]([C@@H](C)CC)C(=O)N(C)CC(=O)N(C)[C@H]2C/C=C\CCN(C2=O)[C@@H](Cc2ccc(C(F)(F)F)cc2)C(=O)N(C)CC(=O)N[C@@H](CCc2cc(F)c(C(F)(F)F)c(F)c2)C(=O)N2C[C@H](OCC)C[C@H]2C(=O)NC2(CC(F)(F)C2)C(=O)N(C)[C@@H](C2CCCC2)C(=O)N1C [PP1734] | A (a compound having 10 or more and less than 20 is denoted as A) | A (a compound having 10 or more and less than 20 is denoted as A) | 4.4
5 | CCC[C@H]1C(=O)N[C@@H]([C@@H](C)CC)C(=O)N(C)CC(=O)N(C)[C@H]2C/C=C\CCN(C2=O)[C@@H](Cc2ccc(C(F)(F)F)cc2)C(=O)N(C)CC(=O)N[C@@H](CCc2cc(F)c(C(F)(F)F)c(F)c2)C(=O)N2C[C@H](OCC)C[C@H]2C(=O)NC2(CC(F)(F)C2)C(=O)N(C)[C@@H](C2CCCC2)C(=O)N(C)[C@H](C(=O)N(C)CC)CC(=O)N1C [PP1735] | AA (a compound having 20 or more is denoted as AA) | A (a compound having 10 or more and less than 20 is denoted as A) | 2.2
6 | CCC[C@H]1C(=O)N[C@@H]([C@@H](C)CC)C(=O)N(C)CC(=O)N(C)[C@H]2C/C=C\CCN(C2=O)[C@@H](Cc2ccc(C(F)(F)F)cc2)C(=O)N(C)CC(=O)N[C@@H](CCc2cc(F)c(C(F)(F)F)c(F)c2)C(=O)N2C[C@H](OCC)C[C@H]2C(=O)NC2(CC(F)(F)C2)C(=O)N(C)[C@@H](C2CCCC2)C(=O)N(C)[C@H](C(=O)N(C)CCC)CC(=O)N1C [PP1736] | A (a compound having 10 or more and less than 20 is denoted as A) | A (a compound having 10 or more and less than 20 is denoted as A) | 3.6
7 | C#CC[C@H]1C(=O)N[C@@H]([C@@H](C)CC)C(=O)N(C)CC(=O)N(C)[C@H]2C/C=C\CCN(C2=O)[C@@H](Cc2ccc(C(F)(F)F)cc2)C(=O)N(C)CC(=O)N[C@@H](CCc2cc(F)c(C(F)(F)F)c(F)c2)C(=O)N2C[C@H](OCC)C[C@H]2C(=O)NC2(CC(F)(F)C2)C(=O)N(C)[C@@H](C2CCCC2)C(=O)N(C)[C@H](C(=O)N(C)CCC)CC(=O)N1C [PP1737] | A (a compound having 10 or more and less than 20 is denoted as A) | A (a compound having 10 or more and less than 20 is denoted as A) | 2.7
8 | CCO[C@@H]1C[C@H]2C(=O)NC3(CC(F)(F)C3)C(=O)N(C)[C@@H](C3CCCC3)C(=O)N(C)[C@H](C(=O)N(C)CC)CC(=O)N(C)[C@@H](CC3CC3)C(=O)N[C@@H]([C@@H](C)CC)C(=O)N(C)CC(=O)N(C)[C@H]3C/C=C\CCN(C3=O)[C@@H](Cc3ccc(C(F)(F)F)cc3)C(=O)N(C)CC(=O)N[C@@H](CCc3cc(F)c(C(F)(F)F)c(F)c3)C(=O)N2C1 [PP1738] | AA (a compound having 20 or more is denoted as AA) | A (a compound having 10 or more and less than 20 is denoted as A) | 5.1
9 | CCCN(C)C(=O)[C@@H]1CC(=O)N(C)[C@@H](CC2CC2)C(=O)N[C@@H]([C@@H](C)CC)C(=O)N(C)CC(=O)N(C)[C@H]2C/C=C\CCN(C2=O)[C@@H](Cc2ccc(C(F)(F)F)cc2)C(=O)N(C)CC(=O)N[C@@H](CCc2cc(F)c(C(F)(F)F)c(F)c2)C(=O)N2C[C@H](OCC)C[C@H]2C(=O)NC2(CC(F)(F)C2)C(=O)N(C)[C@@H](C2CCCC2)C(=O)N1C [PP1739] | AA (a compound having 20 or more is denoted as AA) | AA (a compound having 20 or more is denoted as AA) | 5.5
10 | CCO[C@@H]1C[C@H]2C(=O)NC3(CC(F)(F)C3)C(=O)N(C)[C@@H](C3CCCC3)C(=O)N(C)[C@H](C(=O)N(C)C)CC(=O)N(C)[C@@H](CC(C)C)C(=O)N[C@@H]([C@@H](C)CC)C(=O)N(C)CC(=O)N(C)[C@H]3C/C=C\CCN(C3=O)[C@@H](Cc3ccc(C(F)(F)F)cc3)C(=O)N(C)CC(=O)N[C@@H](CCc3cc(F)c(C(F)(F)F)c(F)c3)C(=O)N2C1 [PP1741] | A (a compound having 10 or more and less than 20 is denoted as A) | B (a compound having 3 or more and less than 10 is denoted as B) | 2.3
11 | CCO[C@@H]1C[C@H]2C(=O)NC3(CC(F)(F)C3)C(=O)N(C)[C@@H](C3CCCC3)C(=O)N(C)[C@H](C(=O)N(C)C)CC(=O)N(C)[C@@H](CC3CCC3)C(=O)N[C@@H]([C@@H](C)CC)C(=O)N(C)CC(=O)N(C)[C@H]3C/C=C\CCN(C3=O)[C@@H](Cc3ccc(C(F)(F)F)cc3)C(=O)N(C)CC(=O)N[C@@H](CCc3cc(F)c(C(F)(F)F)c(F)c3)C(=O)N2C1 [PP1742] | A (a compound having 10 or more and less than 20 is denoted as A) | A (a compound having 10 or more and less than 20 is denoted as A) | 1.6
12 | CCCN(C)C(=O)[C@@H]1CC(=O)N(C)[C@@H](COC)C(=O)N[C@@H]([C@@H](C)CC)C(=O)N(C)CC(=O)N(C)[C@H]2C/C=C\CCN(C2=O)[C@@H](Cc2ccc(C(F)(F)F)cc2)C(=O)N(C)CC(=O)N[C@@H](CCc2cc(F)c(C(F)(F)F)c(F)c2)C(=O)N2C[C@H](OCC)C[C@H]2C(=O)NC2(CC(F)(F)C2)C(=O)N(C)[C@@H](C2CCCC2)C(=O)N1C [PP1743] | AA (a compound having 20 or more is denoted as AA) | A (a compound having 10 or more and less than 20 is denoted as A) | 5.1
13 | CCCOC[C@H]1C(=O)N[C@@H]([C@@H](C)CC)C(=O)N(C)CC(=O)N(C)[C@H]2C/C=C\CCN(C2=O)[C@@H](Cc2ccc(C(F)(F)F)cc2)C(=O)N(C)CC(=O)N[C@@H](CCc2cc(F)c(C(F)(F)F)c(F)c2)C(=O)N2C[C@H](OCC)C[C@H]2C(=O)NC2(CC(F)(F)C2)C(=O)N(C)[C@@H](C2CCCC2)C(=O)N(C)[C@H](C(=O)N(C)CCC)CC(=O)N1C [PP1744] | A (a compound having 10 or more and less than 20 is denoted as A) | A (a compound having 10 or more and less than 20 is denoted as A) | 5.3
14 | CCO[C@@H]1C[C@H]2C(=O)NC3(CC(C)(C)C3)C(=O)N(C)[C@@H](C3CCCC3)C(=O)N(C)[C@H](C(=O)N(C)C)CC(=O)N(C)[C@@H](CC)C(=O)N[C@@H]([C@@H](C)CC)C(=O)N(C)CC(=O)N(C)[C@H]3C/C=C\CCN(C3=O)[C@@H](Cc3ccc(C(F)(F)F)cc3)C(=O)N(C)CC(=O)N[C@@H](CCc3ccc(C(F)(F)F)c(Cl)c3)C(=O)N2C1 [PP1746] | A (a compound having 10 or more and less than 20 is denoted as A) | A (a compound having 10 or more and less than 20 is denoted as A) | 1.9
15 | CCO[C@@H]1C[C@H]2C(=O)NC3(CC(C)(C)C3)C(=O)N(C)[C@@H](C3CCCC3)C(=O)N(C)[C@H](C(=O)N(C)C)CC(=O)N(C)[C@@H](CC(F)F)C(=O)N[C@@H]([C@@H](C)CC)C(=O)N(C)CC(=O)N(C)[C@H]3C/C=C\CCN(C3=O)[C@@H](Cc3ccc(C(F)(F)F)cc3)C(=O)N(C)CC(=O)N[C@@H](CCc3ccc(C(F)(F)F)c(Cl)c3)C(=O)N2C1 [PP1747] | A (a compound having 10 or more and less than 20 is denoted as A) | A (a compound having 10 or more and less than 20 is denoted as A) | 2.3
